From US8642642B2, “Heterocyclic arylsulphones suitable for treating disorders that respond to modulation of the serotonin 5HT6 receptor” (Abbott Laboratories, priority 2006, dated 2014)
pKi: −log10 of the molar value. Where a name gives a salt, the structure may show the parent alone.

Target: T1, human 5-HT6 receptor (Homo sapiens, UniProt P50406)
T1 construct: expressed in transfected cells
Assay: Human 5-HT6 receptor binding assay (3H-LSD displacement)
Details: membranes from HEK-293 cells, 2 nM 3H-LSD
Procedure: The substance to be tested was either dissolved in methanol/Chremophor® (BASF-AG) or in dimethyl sulfoxide and then diluted with water to the desired concentration.
The compounds were dissolved in a concentration of 10^−2 M or 10^−3 M in DMSO. Further dilutions were performed in incubation buffer.
The procedure for the binding assay was based on the method of Monsma et al. (1993) Mol Pharmacol 43: 320-327. The binding reaction was carried out in a total volume of 0.250 ml for 60 min at 37° C. Membranes from HEK-293 cells stably expressing the human 5-HT6 receptor were incubated with 2 nM ^3H-LSD in the presence or absence of various concentrations of test compound for 60 min at 37° C. Non-specific binding was defined with 100 μM Serotonin (5-HT). Assays were performed in duplicate. Bound and free radioligand was separated by filtration and bound radioactivity determined by liquid scintillation counting.
The specific ligand binding to the receptors was defined as the difference between the total binding and the nonspecific binding determined in the presence of an excess of unlabelled 5-HT. The results are expressed as a percent of control specific binding obtained in the presence of compound. The IC50 values (concentration causing a half-maximal inhibition of control specific binding) and Hill coefficients (nH) were determined by non-linear regression analysis of the competition curves using Hill equation curve fitting.
The inhibition constants (Ki) were calculated from the Cheng Prusoff equation (Ki=IC50/(1+(L/KD)), where L=concentration of radioligand in the assay, and KD=affinity of the radioligand for the receptor).

T1 sequence (P50406 whole entry): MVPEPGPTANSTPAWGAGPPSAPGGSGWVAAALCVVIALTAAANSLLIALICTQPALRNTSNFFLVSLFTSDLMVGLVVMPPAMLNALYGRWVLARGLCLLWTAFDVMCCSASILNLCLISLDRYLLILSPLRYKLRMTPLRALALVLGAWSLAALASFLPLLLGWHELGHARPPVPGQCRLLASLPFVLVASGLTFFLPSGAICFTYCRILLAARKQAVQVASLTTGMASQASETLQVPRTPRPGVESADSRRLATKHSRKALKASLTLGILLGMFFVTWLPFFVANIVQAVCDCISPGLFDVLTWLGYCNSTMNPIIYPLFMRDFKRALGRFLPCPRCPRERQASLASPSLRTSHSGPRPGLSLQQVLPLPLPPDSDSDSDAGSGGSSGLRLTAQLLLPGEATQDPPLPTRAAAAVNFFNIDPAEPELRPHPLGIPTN

Structure (SMILES)	pKi
O=S(=O)(Nc1cccc(C2CNC2)c1)c1cccc(Cl)c1 [Example 17, N-(3-Azetidin-3-yl-phenyl)-3-chloro-benzenesulfonamide]	> 9.00
CCCN1CC(c2ccc(NS(=O)(=O)c3ccc(F)c(Cl)c3)cc2)C1 [Example 44, 3-Chloro-4-fluoro-N-[4-(1-propyl-azetidin-3-yl)-phenyl]-benzenesulfonamide]	6.82 to 7.30
Cc1nc(-c2cccc(S(=O)(=O)Nc3cccc(C4CNC4)c3)c2)cs1 [Example 10, N-(3-Azetidin-3-yl-phenyl)-3-(2-methyl-thiazol-4-yl)-benzenesulfonamide]	8.00 to 9.00
CCCN1CC(c2ccc(NS(=O)(=O)c3cc(C)ccc3C)cc2)C1 [Example 43, 2,5-Dimethyl-N-[4-(1-propyl-azetidin-3-yl)-phenyl]-benzenesulfonamide]	7.30 to 8.00
CCCN1CC(c2ccc(NS(=O)(=O)c3ccc(Cl)s3)cc2)C1 [Example 47, 5-Chloro-thiophene-2-sulfonic acid [4-(1-propyl-azetidin-3-yl)-phenyl]-amide]	7.30 to 8.00
CCCN1CC[C@@H](c2ccc(NS(=O)(=O)c3cccc(OC(F)(F)F)c3)cc2)C1 [Example 1, 3-Trifluoromethoxy-N-[4-((S)-1-propyl-pyrrolidin-3-yl)-phenyl]-benzenesulfonamide and its hydrochloride]	7.30 to 8.00
CCCN1CC[C@@H](c2ccc(NS(=O)(=O)c3cccc([C@H](C)C(F)F)c3)cc2)C1 [Example 34, 3-((S)-2,2-Difluoro-1-methyl-ethyl)-N-[4-((S)-1-propyl-pyrrolidin-3-yl)-phenyl]-benzenesulfonamide]	7.30 to 8.00
Cc1cccc(S(=O)(=O)Nc2cccc(C3CNC3)c2)c1 [Example 19, N-(3-Azetidin-3-yl-phenyl)-3-methyl-benzenesulfonamide]	8.00 to 9.00
O=S(=O)(Nc1cccc(C2CNC2)c1)c1cccs1 [Example 12, Thiophene-2-sulfonic acid (3-azetidin-3-yl-phenyl)-amide]	7.30 to 8.00
COc1ccc(C)cc1S(=O)(=O)Nc1cccc(C2CNC2)c1 [Example 22, N-(3-Azetidin-3-yl-phenyl)-2-methoxy-5-methyl-benzenesulfonamide]	8.00 to 9.00
O=S(=O)(Nc1cccc(C2CNC2)c1)c1cc(C(F)(F)F)cc(C(F)(F)F)c1 [Example 13, N-(3-Azetidin-3-yl-phenyl)-3,5-bis-trifluoromethyl-benzenesulfonamide]	7.30 to 8.00
CCCN1CC(c2ccc(NS(=O)(=O)c3cc(C(F)(F)F)cc(C(F)(F)F)c3)cc2)C1 [Example 42, N-[4-(1-Propyl-azetidin-3-yl)-phenyl]-3,5-bis-trifluoromethyl-benzenesulfonamide]	6.82 to 7.30
Cc1c(S(=O)(=O)Nc2ccc(C3CNC3)cc2)sc2ccc(Cl)cc12 [Example 26, 5-Chloro-3-methyl-benzo[b]thiophene-2-sulfonic acid (4-azetidin-3-yl-phenyl)-amide]	8.00 to 9.00
CCCN1CC(c2ccc(NS(=O)(=O)c3cccc(F)c3)cc2)C1 [Example 45, 3-Fluoro-N-[4-(1-propyl-azetidin-3-yl)-phenyl]-benzenesulfonamide]	7.30 to 8.00
CCCN1CC(c2ccc(NS(=O)(=O)c3cc(Cl)sc3Cl)cc2)C1 [Example 46, 2,5-Dichloro-thiophene-3-sulfonic acid [4-(1-propyl-azetidin-3-yl)-phenyl]-amide]	6.82 to 7.30
O=S(=O)(Nc1cccc(C2CNC2)c1)c1cccc(F)c1 [Example 15, N-(3-Azetidin-3-yl-phenyl)-3-fluoro-benzenesulfonamide]	8.00 to 9.00
COc1ccc(OC)c(S(=O)(=O)Nc2cccc(C3CNC3)c2)c1 [Example 14, N-(3-Azetidin-3-yl-phenyl)-2,5-dimethoxy-benzenesulfonamide]	8.00 to 9.00
COc1ccc(Br)cc1S(=O)(=O)Nc1cccc(C2CNC2)c1 [Example 20, N-(3-Azetidin-3-yl-phenyl)-5-bromo-2-methoxy-benzenesulfonamide]	> 9.00
O=S(=O)(Nc1cccc([C@@H]2CCNC2)c1)c1cccc(OC(F)(F)F)c1 [Example 7, N—((S)-3-Pyrrolidin-3-yl-phenyl)-3-trifluoromethoxy-benzene sulfonamide]	8.00 to 9.00
O=S(=O)(Nc1cccc(C2CNC2)c1)c1cc(Cl)cc(Cl)c1 [Example 18, N-(3-Azetidin-3-yl-phenyl)-3,5-dichloro-benzenesulfonamide]	8.00 to 9.00
CCCN1CC(c2ccc(NS(=O)(=O)c3cc(Cl)ccc3Cl)cc2)C1 [Example 40, 2,5-Dichloro-N-[4-(1-propyl-azetidin-3-yl)-phenyl]-benzenesulfonamide]	6.82 to 7.30
O=S(=O)(Nc1ccc(C2CNC2)cc1)c1cccc(C(F)(F)F)c1 [Example 11, N-(4-Azetidin-3-yl-phenyl)-3-trifluoromethyl-benzenesulfonamide]	8.00 to 9.00
CCCN1CCC(c2cc(NS(=O)(=O)c3cccc(OC(F)(F)F)c3)ccc2OC)C1 (stereo not shown) [Example 8, N-[4-Methoxy-3-(1-propyl-pyrrolidin-3-yl)-phenyl]-3-trifluoromethoxy-benzenesulfonamide]	7.30 to 8.00
O=S(=O)(Nc1cccc(C2CNC2)c1)c1cccc(OC(F)(F)F)c1 [Example 32, N-(3-Azetidin-3-yl-phenyl)-3-trifluoromethoxy-benzenesulfonamide]	8.00 to 9.00
CSc1nccc(-c2ccc(S(=O)(=O)Nc3cccc(C4CNC4)c3)s2)n1 [Example 23, 5-(2-Methylsulfanyl-pyrimidin-4-yl)-thiophene-2-sulfonic acid (3-azetidin-3-yl-phenyl)-amide]	7.30 to 8.00
N#Cc1cccc(S(=O)(=O)Nc2cccc(C3CNC3)c2)c1 [Example 24, N-(3-Azetidin-3-yl-phenyl)-3-cyano-benzenesulfonamide]	6.82 to 7.30
O=S(=O)(Nc1cccc(C2CNC2)c1)c1cc(Cl)sc1Cl [Example 16, 2,5-Dichloro-thiophene-3-sulfonic acid (3-azetidin-3-yl-phenyl)-amide]	8.00 to 9.00
O=S(=O)(Nc1cccc(C2CNC2)c1)c1ccc(S(=O)(=O)c2ccccc2)s1 [Example 21, 5-Benzenesulfonyl-thiophene-2-sulfonic acid (3-azetidin-3-yl-phenyl)-amide]	6.82 to 7.30

Second part, the compound after the results:

pKi	Structure (SMILES)
7.30 to 8.00	CCCN1CC[C@@H](c2ccc(NS(=O)(=O)c3cc(C(F)(F)F)ccc3F)cc2)C1 [Example 104, 2-Fluoro-N-[4-((S)-1-propyl-pyrrolidin-3-yl)-phenyl]-5-trifluoromethyl-benzenesulfonamide]
8.00 to 9.00	O=S(=O)(Nc1cccc([C@@H]2CCNC2)c1)c1cccc(C(F)(F)F)c1 [Example 67, N-[3-((S)-pyrrolidin-3-yl)-phenyl]-3-trifluoromethyl-benzene sulfonamide]
7.30 to 8.00	CCCN1CC(c2ccc(NS(=O)(=O)c3cc(Cl)cc(Cl)c3)cc2)C1 [Example 49, 3,5-Dichloro-N-[4-(1-propyl-azetidin-3-yl)-phenyl]-benzenesulfonamide]
7.30 to 8.00	CCCN1CC(c2ccc(NS(=O)(=O)c3cccc(Cl)c3)cc2)C1 [Example 48, 3-Chloro-N-[4-(1-propyl-azetidin-3-yl)-phenyl]-benzenesulfonamide]
6.82 to 7.30	CCCN1CC[C@@H](c2ccc(NS(=O)(=O)c3cccc(C#N)c3)cc2)C1 [Example 64, 3-Cyano-N-[4-((S)-1-propyl-pyrrolidin-3-yl)-phenyl]-benzenesulfonamide hydrochloride]
7.30 to 8.00	CCCN1CC(c2ccc(NS(=O)(=O)c3cccc(Br)c3)cc2)C1 [Example 52, 3-Bromo-N-[4-(1-propyl-azetidin-3-yl)-phenyl]-benzenesulfonamide]
7.30 to 8.00	CCCN1C[C@H](c2ccc(NS(=O)(=O)c3cccc(C(F)(F)F)c3)cc2)C[C@H]1C [Example 94, N-[4-((3S,5R)-5-Methyl-1-propyl-pyrrolidin-3-yl)-phenyl]-3-trifluoromethyl-benzenesulfonamide hydrochloride]
8.00 to 9.00	CN1CC[C@@H](c2cccc(NS(=O)(=O)c3cccc(C(F)(F)F)c3)c2)C1 [Example 77, N-[3-((S)-1-Methyl-pyrrolidin-3-yl)-phenyl]-3-trifluoromethyl-benzenesulfonamide hydrochloride]
7.30 to 8.00	O=S(=O)(Nc1ccc([C@@H]2CCNC2)cc1)c1cccc(C(F)(F)F)c1 [Example 101, N—((S)-4-Pyrrolidin-3-yl-phenyl)-3-trifluoromethyl-benzenesulfonamide]
6.82 to 7.30	CCCN1CC(c2ccc(NS(=O)(=O)c3cccc(C)c3)cc2)C1 [Example 50, 3-Methyl-N-[4-(1-propyl-azetidin-3-yl)-phenyl]-benzenesulfonamide]
7.30 to 8.00	O=S(=O)(Nc1cccc([C@@H]2CCN(Cc3ccccc3)C2)c1)c1cccc(C(F)(F)F)c1 [Example 65, N-[3-((S)-1-Benzyl-pyrrolidin-3-yl)-phenyl]-3-trifluoromethyl-benzene sulfonamide]
7.30 to 8.00	O=S(=O)(Nc1cccc(C2CCCNC2)c1)c1cccc(OC(F)(F)F)c1 (stereo not shown) [Example 63, N-(3-Piperidin-3-yl-phenyl)-3-trifluoromethoxy-benzenesulfonamide hydrochloride]
